The structures appear in SMILES notation. The source made the active and inactive calls. No cut-off for these calls is given here.

Here are results for 17 compounds from ChEMBL document CHEMBL1146967, “The geminal dimethyl analogue of Flurbiprofen as a novel Abeta42 inhibitor and potential Alzheimer's disease modifying agent” (Bioorg Med Chem Lett, 2006).

Data set [1] in a line: Inhibition of beta amyloid protein 42 in HEK cell lines overexpressing APP695 at 100 uM. The format is functional. To be noted: Homo sapiens, HEK293.
Data set [2] has as its system HEK293. Put plainly: Inhibition of beta amyloid protein 40 in HEK cell lines overexpressing APP695. To be noted: Homo sapiens. It counts as functional, cell-based.
Data set [3] in a line: Clearance in monkey at 2 mg/kg, iv. It counts as ADME, organism-based, Macaca mulatta. Further details: dose 2 mg/kg, route intravenous. The following applies: rhesus monkey, in vivo.
A short description of data set [4]: Half life in monkey at 2 mg/kg, iv. It counts as ADME, organism-based, Macaca mulatta. Also noted: dose 2 mg/kg, route intravenous. To be noted: rhesus monkey, in vivo.
Data set [5] can be described thus: Volume of distribution in dog at 2 mg/kg, iv. The format is ADME, organism-based, Canis lupus familiaris. The following applies: in vivo, read-out: Vdss. Further details: dose 2 mg/kg, route intravenous.
Data set [6] can be described thus: Cmax in monkey at 2 mg/kg, po. It counts as ADME, organism-based, Macaca mulatta. Further details: dose 2 mg/kg, route oral. To be noted: rhesus monkey, in vivo.
The nature of data set [7]: Tmax in monkey at 2 mg/kg, po. It counts as ADME, organism-based, Macaca mulatta. Also noted: dose 2 mg/kg, route oral. The following applies: rhesus monkey, in vivo.
Data set [8] is described as follows: Clearance in rat at 2 mg/kg, iv. The format is ADME, organism-based. Also noted: dose 2 mg/kg, route intravenous. The following applies: in vivo.
A short description of data set [9]: Tmax in rat at 2 mg/kg, po. It counts as ADME, organism-based. Further details: dose 2 mg/kg, route oral. To be noted: in vivo.
Data set [10] can be described thus: Volume of distribution in rat at 2 mg/kg, iv. It counts as ADME, organism-based. Further details: dose 2 mg/kg, route intravenous. The following applies: in vivo, read-out: Vdss.
The subject of data set [11] is Mus musculus. Put plainly: Decrease in beta amyloid protein 42 level in Tg2576 transgenic mouse at 21 mg/kg relative to control. It counts as functional. Further details: scale not given: the % may be the effect or the level left.
Data set [12] deals with Mus musculus. Put plainly: Drug level in mouse brain at 50 mg/kg, po. It counts as ADME, organism-based. Also noted: dose 50 mg/kg, route oral. The following applies: in vivo, read-out: Drug uptake.
A short description of data set [13]: Clearance in mouse at 2 mg/kg, iv. The following applies: in vivo. Further details: dose 2 mg/kg, route intravenous. It counts as ADME, organism-based.
Data set [14] can be described thus: Half life in dog at 2 mg/kg, iv. The format is ADME, organism-based, Canis lupus familiaris. Also noted: dose 2 mg/kg, route intravenous. To be noted: in vivo.
Data set [15] is described as follows: Clearance in dog at 2 mg/kg, iv. Also noted: dose 2 mg/kg, route intravenous. To be noted: in vivo. It counts as ADME, organism-based, Canis lupus familiaris.
Data set [16] is described as follows: Tmax in dog at 2 mg/kg, po. It counts as ADME, organism-based, Canis lupus familiaris. Further details: dose 2 mg/kg, route oral. The following applies: in vivo.
Data set [17] in a line: Cmax in dog at 2 mg/kg, po. It counts as ADME, organism-based, Canis lupus familiaris. Further details: dose 2 mg/kg, route oral. The following applies: in vivo.
Data set [18] is described as follows: Oral bioavailability in monkey at 2 mg/kg, po. It counts as ADME, organism-based, Macaca mulatta. The following applies: rhesus monkey, in vivo.
Data set [19] can be described thus: Oral bioavailability in mouse at 2 mg/kg, po. It counts as ADME, organism-based. The following applies: in vivo.
Data set [20] concerns Mus musculus. The data set is described as follows: Decrease in beta amyloid protein 40 level in Tg2576 transgenic mouse at 21 mg/kg relative to control. Also noted: scale not given: the % may be the effect or the level left. It counts as functional.
The nature of data set [21]: Ratio of drug level in brain against plasma in mice at 50 mg/kg, po. Further details: dose 50 mg/kg, route oral. The format is ADME, organism-based. The following applies: mouse, brain and plasma, read-out: BBR.
Data set [22] relates to Mus musculus. Put plainly: Drug level in mouse plasma at 50 mg/kg, po. Also noted: dose 50 mg/kg, route oral. The following applies: in vivo, read-out: Drug uptake. The format is ADME, organism-based.
Data set [23] in a line: Cmax in mouse at 2 mg/kg, po. The format is ADME, organism-based. Further details: dose 2 mg/kg, route oral. The following applies: in vivo.
The nature of data set [24]: Half life in mouse at 2 mg/kg, iv. The format is ADME, organism-based. Further details: dose 2 mg/kg, route intravenous. To be noted: in vivo.
Data set [25] concerns the target Prostaglandin G/H synthase 1 (Homo sapiens, UniProt P23219). The data set is described as follows: Inhibition of COX1 in human whole blood. The format is functional, tissue-based.
The nature of data set [26]: Oral bioavailability in rat at 2 mg/kg, po. The format is ADME, organism-based. To be noted: in vivo.
A short description of data set [27]: Cmax in rat at 2 mg/kg, po. The format is ADME, organism-based. Also noted: dose 2 mg/kg, route oral. The following applies: in vivo.
A short description of data set [28]: Volume of distribution in monkey at 2 mg/kg, iv. It counts as ADME, organism-based, Macaca mulatta. Also noted: dose 2 mg/kg, route intravenous. To be noted: rhesus monkey, in vivo, read-out: Vdss.
Data set [29] can be described thus: Volume of distribution in mouse at 2 mg/kg, iv. The following applies: in vivo, read-out: Vdss. The format is ADME, organism-based. Further details: dose 2 mg/kg, route intravenous.
Data set [30] in a line: Oral bioavailability in dog at 2 mg/kg, po. The format is ADME, organism-based, Canis lupus familiaris. To be noted: in vivo.
Data set [31] is described as follows: Half life in rat at 2 mg/kg, iv. The format is ADME, organism-based. Also noted: dose 2 mg/kg, route intravenous. The following applies: in vivo.
Data set [32] in a line: Tmax in mouse at 2 mg/kg, po. The format is ADME, organism-based. Also noted: dose 2 mg/kg, route oral. To be noted: in vivo.
Data set [33] has as its target T1, Gamma-secretase (Homo sapiens) (UniProt Q96BI3+Q9NZ42+Q8WW43+P49768+Q92542+P49810). Put plainly: Inhibition of NOTCH receptor cleavage at 200 uM. It counts as functional.
The target in data set [34] is T1, Gamma-secretase (Homo sapiens). The data set is described as follows: Inhibition of beta amyloid protein 42 in SH-SY5Y cell lines overexpressing SPA4CT at 100 uM. The format is functional, cell-based.
Data set [35] shares this target. The data set is described as follows: Inhibition of beta amyloid protein 42 in SH-SY5Y cell lines overexpressing SPA4CT at 30 uM. The format is functional, cell-based.
Data set [36] can be described thus: Inhibition of beta amyloid protein 42 in HEK cell lines overexpressing APP695 at 40 uM. It counts as functional. To be noted: Homo sapiens, HEK293.
The target of data set [37] is T1, Gamma-secretase (Homo sapiens). The data set is described as follows: Inhibition of beta amyloid protein 42 in SH-SY5Y cell lines overexpressing SPA4CT at 600 uM. The format is functional, cell-based.
The target is the same in data set [38]. To be noted: SH-SY5Y, 300 uM.
Description: Inhibition of beta amyloid protein 42 in SH-SY5Y cell lines overexpressing SPA4CT at 300 uM

Sequence of Prostaglandin G/H synthase 1 (P23219 whole entry): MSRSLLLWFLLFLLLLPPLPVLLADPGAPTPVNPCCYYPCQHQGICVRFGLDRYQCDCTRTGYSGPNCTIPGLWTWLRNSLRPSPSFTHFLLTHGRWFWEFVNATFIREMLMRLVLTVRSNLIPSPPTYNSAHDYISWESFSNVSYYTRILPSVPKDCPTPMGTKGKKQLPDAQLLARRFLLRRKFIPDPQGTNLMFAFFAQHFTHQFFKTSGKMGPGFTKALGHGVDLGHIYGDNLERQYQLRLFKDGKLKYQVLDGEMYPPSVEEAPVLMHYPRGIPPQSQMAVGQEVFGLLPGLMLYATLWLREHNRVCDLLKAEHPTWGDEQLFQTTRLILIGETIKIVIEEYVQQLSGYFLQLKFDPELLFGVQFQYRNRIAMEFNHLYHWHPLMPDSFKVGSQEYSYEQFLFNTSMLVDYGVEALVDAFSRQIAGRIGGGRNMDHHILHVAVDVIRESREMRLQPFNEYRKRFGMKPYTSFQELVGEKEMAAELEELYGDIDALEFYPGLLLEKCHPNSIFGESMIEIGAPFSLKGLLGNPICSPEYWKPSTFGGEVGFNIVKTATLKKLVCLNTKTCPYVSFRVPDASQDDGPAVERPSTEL

What is called inhibition is the drop in the measured response relative to a control, in per cent. Turning to `CC(C)(C(=O)O)c1ccc2c(c1)[nH]c1ccc(Cl)cc12`, at 100 µM the inhibition in data set [1] was 40%. Also, the inhibition entry in [2] is “inactive”.
As usually defined, the clearance is the volume of plasma or blood freed of the substance per unit of time. By half-life is commonly meant the time in which the quantity being followed falls by half. Broadly, the Cmax is the maximum level reached in the sampled fluid or tissue. Broadly, the Tmax is the time at which the peak concentration occurs. A word on the bioavailability: it is the share of a dose that reaches the circulation, judged against a reference dose that is usually intravenous. Broadly, the IC50 is the concentration that inhibits the measured activity by half. As for `CC(C)(C(=O)O)c1ccc(-c2ccccc2)c(F)c1`, the clearance in data set [3] was 3.8 mL/min/kg; in data set [8], 1.3 mL/min/kg; in data set [13], 0.7 mL/min/kg; in data set [15] it was 0.28 mL/min/kg. Besides, the half-life in [4] was 8 h; in [14] it was 11.3 h; in data set [24] it was 4.6 h; in data set [31], 3.4 h. Moreover, the Vd in data set [5] was found to be 0.11 L/kg; in data set [10] it was 0.15 L/kg; in data set [28] it was 0.3 L/kg; in [29] it was 0.22 L/kg. The Cmax was 27.3 µM in data set [6], 76.4 µM in [17], 24.4 µM in data set [23] and 15.2 µM in [27]. For the same compound, the Tmax in data set [7] is 0.25 h; in [9], 2 h; in [16], 0.33 h; in data set [32], 0.25 h. The compound also had an inhibition at 100 µM in data set [1] of 67%. Further, the Activity in data set [11] is 18%; in data set [20], 13%. The concentration in data set [12] was 13 µM; in data set [22], 849 µM. The bioavailability in data set [18] was found to be 90%; in data set [19], 81%; in data set [26], 79%; in data set [30], 87%. The Kp in data set [21] worked out at 0.02. Further, the IC50 in data set [25] was > 100 µM. Moreover, the inhibition entry in [2] is “inactive”. Also, in data set [33], the result was inactive.
The compound `C[C@H](C(=O)O)c1ccc(-c2ccccc2)c(F)c1` [ESFLURBIPROFEN] displayed an inhibition at 100 µM in data set [1] of 65%. The compound further returned an inhibition in data set [34] of 37%.
As for `CC(=O)Nc1ccc(O)cc1` [ACETAMINOPHEN], the concentration is 43 µM in [12] and 64 µM in [22]. In addition, the Kp in [21] was 0.68.
`COc1ccc2c(c1)c(CC(=O)O)c(C)n2C(=O)c1ccc(Cl)cc1` [INDOMETHACIN]: 100 µM produced 73% inhibition in data set [1]. Further, the concentration stood at 3 µM in data set [12] and 266 µM in data set [22]. In [21], the Kp amounted to 0.01. The inhibition in data set [34] amounted to 53%.
For `CC(C(=O)O)c1cccc(Oc2ccccc2)c1` (stereo not drawn) [FENOPROFEN], the concentration amounted to 41 µM in data set [12] and 1360 µM in data set [22]. The Kp in data set [21] is 0.03.
In the case of `CC(C)Cc1ccc(C(C)(C)C(=O)O)cc1`, in data set [1], the inhibition at 100 µM came out at 3%. The inhibition result in data set [2] is “inactive”.
The matching figures for `COc1ccc2cc(C(C)(C)C(=O)O)ccc2c1`: 0% and “inactive”.
In [35], `CSc1ccc(/C=C2/C(C)=C(CC(=O)O)c3cc(F)ccc32)cc1` [SULINDAC SULFIDE] came in with an inhibition of 73%. In addition, the concentration in data set [12] stood at 1.7 µM; in [22] it was 296 µM. The inhibition at 40 µM in [36] stood at 54%. Besides, in data set [21], the Kp worked out at 0.006.
`C[C@@H](C(=O)O)c1ccc(-c2ccccc2)c(F)c1` [TARENFLURBIL]: the inhibition at 100 µM in data set [1] was determined as 51%. In addition, the concentration amounted to 41 µM in [12] and 1190 µM in data set [22]. The Kp in data set [21] is 0.04. Further, the inhibition in [34] was determined as 23%.
In the case of `O=C(O)Cc1ccccc1Nc1c(Cl)cccc1Cl`, in [34], the inhibition was found to be 17%.
In the case of `Cc1cccc(Nc2ccccc2C(=O)O)c1C` [MEFENAMIC ACID], the concentration in [12] came to 2.7 µM; in data set [22] it was 87 µM. Moreover, the Kp in data set [21] was determined as 0.03.
Regarding `CC1=C(CC(=O)O)c2cc(F)ccc2/C1=C\c1ccc(S(C)(=O)=O)cc1` [EXISULIND], the inhibition in data set [35] was determined as 9%. The inhibition at 40 µM in data set [36] turned out to be 0%.
`CC(C)Cc1ccc(C(C)C(=O)O)cc1` (stereo not drawn) [IBUPROFEN] had an inhibition in [37] of 41%. The compound also had an inhibition at 100 µM in data set [1] of 28%. Besides, the Activity is reported as 20% in data set [11] and 11% in [20]. The concentration is 18 µM in data set [12] and 592 µM in [22]. Besides, the Kp in data set [21] came to 0.03.
Consider `COc1ccc2c(c1)c(C(C)(C)C(=O)O)c(C)n2C(=O)c1ccc(Cl)cc1`, for which the inhibition at 100 µM in data set [1] was found to be 2%. For the same compound, the inhibition entry in data set [2] is “inactive”.
As for `COc1ccc2cc([C@H](C)C(=O)O)ccc2c1` [NAPROXEN], the figures for the concentration in data set [12] and in data set [22] were 27 µM and 887 µM, respectively. Moreover, the Kp in [21] was 0.03. Further, in data set [38], the inhibition is 3%.
For the compound `CC(C)(C(=O)O)c1cccc(Oc2ccccc2)c1`, in [1], the inhibition at 100 µM came out at 0%. Besides, in [2], the inhibition result is “inactive”.
